Experimental data published in the NIST ThermoML archive (doi:10.1016/j.jct.2010.10.018).
± gives the expanded uncertainty stated by the source.

Assay: xn = mol fraction of the nth substance listed
Settings: 101 kPa, Liquid, Vibrating tube method

CC(C)(C)O [2-methylpropan-2-ol] + O
Settings | mass density [kg/m3]
298.15 K, x1 = 0.6029 | 813.22 ± 0.15
298.15 K, x1 = 0.6909 | 803.57 ± 0.16
298.15 K, x1 = 0.726 | 800.1 ± 0.16
298.15 K, x1 = 0.7999 | 794.07 ± 0.16
298.15 K, x1 = 0.8711 | 788.3 ± 0.17
298.15 K, x1 = 0.9183 | 785.07 ± 0.17
298.15 K, x1 = 0.9574 | 782.74 ± 0.17
298.15 K, x1 = 0.9652 | 782.29 ± 0.17
298.15 K, x1 = 0.9795 | 781.56 ± 0.17
298.15 K, x1 = 0.9873 | 781.18 ± 0.17
298.15 K, x1 = 0.9935 | 780.83 ± 0.17
298.15 K, x1 = 0.9963 | 780.69 ± 0.17
299.15 K, x1 = 0.9821 | 780.36 ± 0.17
299.15 K, x1 = 0.9944 | 779.76 ± 0.17
299.15 K, x1 = 0.996 | 779.69 ± 0.17
299.15 K, x1 = 1 | 779.48 ± 0.17
303.15 K, x1 = 0.9821 | 776.31 ± 0.17
303.15 K, x1 = 0.9944 | 775.66 ± 0.17
303.15 K, x1 = 0.996 | 775.58 ± 0.17
303.15 K, x1 = 1 | 775.39 ± 0.17
308.15 K, x1 = 0.00089 | 993.36 ± 0.11
308.15 K, x1 = 0.00146 | 992.96 ± 0.11
308.15 K, x1 = 0.00269 | 992.08 ± 0.11
308.15 K, x1 = 0.00403 | 991.15 ± 0.11
308.15 K, x1 = 0.00513 | 990.39 ± 0.11
308.15 K, x1 = 0.00761 | 988.7 ± 0.11
308.15 K, x1 = 0.01405 | 984.86 ± 0.11
308.15 K, x1 = 0.0248 | 978.65 ± 0.11
308.15 K, x1 = 0.03494 | 973.48 ± 0.11
308.15 K, x1 = 0.04241 | 969.43 ± 0.11
308.15 K, x1 = 0.05218 | 963.7 ± 0.12
308.15 K, x1 = 0.05887 | 959.67 ± 0.12
308.15 K, x1 = 0.06973 | 953.09 ± 0.12
308.15 K, x1 = 0.1125 | 928.56 ± 0.12
308.15 K, x1 = 0.1566 | 906.33 ± 0.13
308.15 K, x1 = 0.208 | 886.22 ± 0.13
308.15 K, x1 = 0.2408 | 874.67 ± 0.14
308.15 K, x1 = 0.3023 | 856.97 ± 0.14
308.15 K, x1 = 0.3451 | 846.68 ± 0.14
308.15 K, x1 = 0.4045 | 834.17 ± 0.15
308.15 K, x1 = 0.4225 | 830.99 ± 0.15
308.15 K, x1 = 0.4653 | 823.8 ± 0.15
308.15 K, x1 = 0.5344 | 812.83 ± 0.15
308.15 K, x1 = 0.6029 | 803.86 ± 0.16
308.15 K, x1 = 0.6909 | 794.03 ± 0.16
308.15 K, x1 = 0.726 | 790.54 ± 0.16
308.15 K, x1 = 0.7999 | 784.37 ± 0.17
308.15 K, x1 = 0.8711 | 778.45 ± 0.17
308.15 K, x1 = 0.9183 | 775.09 ± 0.17
308.15 K, x1 = 0.9574 | 772.63 ± 0.17
308.15 K, x1 = 0.9652 | 772.13 ± 0.17
308.15 K, x1 = 0.9795 | 771.34 ± 0.17
308.15 K, x1 = 0.9821 | 771.14 ± 0.17
308.15 K, x1 = 0.9944 | 770.47 ± 0.17
308.15 K, x1 = 0.996 | 770.38 ± 0.17
308.15 K, x1 = 1 | 770.14 ± 0.17
313.15 K, x1 = 0.9821 | 765.88 ± 0.18
313.15 K, x1 = 0.9944 | 765.18 ± 0.18
313.15 K, x1 = 0.996 | 765.09 ± 0.18
313.15 K, x1 = 1 | 764.84 ± 0.18
318.15 K, x1 = 0.9821 | 760.53 ± 0.18
318.15 K, x1 = 0.9944 | 759.8 ± 0.2
318.15 K, x1 = 0.996 | 759.71 ± 0.18
318.15 K, x1 = 1 | 759.46 ± 0.18
323.15 K, x1 = 0.00089 | 987.36 ± 0.11
323.15 K, x1 = 0.00146 | 986.95 ± 0.11
323.15 K, x1 = 0.00269 | 986.1 ± 0.11
323.15 K, x1 = 0.00403 | 985.16 ± 0.11
323.15 K, x1 = 0.00513 | 984.39 ± 0.11
323.15 K, x1 = 0.00761 | 982.75 ± 0.11
323.15 K, x1 = 0.01405 | 978.38 ± 0.11
323.15 K, x1 = 0.0248 | 971.52 ± 0.11
323.15 K, x1 = 0.03494 | 965.43 ± 0.12
323.15 K, x1 = 0.04241 | 960.77 ± 0.12
323.15 K, x1 = 0.05218 | 954.06 ± 0.12
323.15 K, x1 = 0.05887 | 949.57 ± 0.12
323.15 K, x1 = 0.06973 | 942.66 ± 0.12
323.15 K, x1 = 0.1125 | 916.92 ± 0.13
323.15 K, x1 = 0.1566 | 893.97 ± 0.13
323.15 K, x1 = 0.208 | 873.34 ± 0.14
323.15 K, x1 = 0.2408 | 861.46 ± 0.14
323.15 K, x1 = 0.3023 | 843.45 ± 0.14
323.15 K, x1 = 0.3451 | 832.95 ± 0.15
323.15 K, x1 = 0.4045 | 820.18 ± 0.15
323.15 K, x1 = 0.4225 | 816.91 ± 0.15
323.15 K, x1 = 0.4653 | 809.6 ± 0.15
323.15 K, x1 = 0.5344 | 798.37 ± 0.16
323.15 K, x1 = 0.6029 | 789.18 ± 0.16
323.15 K, x1 = 0.6909 | 779.13 ± 0.17
323.15 K, x1 = 0.726 | 775.51 ± 0.17
323.15 K, x1 = 0.7999 | 769.18 ± 0.17
323.15 K, x1 = 0.8711 | 763 ± 0.17
323.15 K, x1 = 0.9183 | 759.52 ± 0.18
323.15 K, x1 = 0.9574 | 756.76 ± 0.18
323.15 K, x1 = 0.9652 | 756.21 ± 0.18
323.15 K, x1 = 0.9795 | 755.31 ± 0.18
323.15 K, x1 = 0.9821 | 755.09 ± 0.18
323.15 K, x1 = 0.9944 | 754.31 ± 0.18
323.15 K, x1 = 0.996 | 754.22 ± 0.18
323.15 K, x1 = 1 | 753.94 ± 0.18
333.15 K, x1 = 0.00089 | 982.51 ± 0.11
333.15 K, x1 = 0.00146 | 982.1 ± 0.11
333.15 K, x1 = 0.00269 | 981.23 ± 0.11
333.15 K, x1 = 0.00403 | 980.3 ± 0.11
333.15 K, x1 = 0.00513 | 979.52 ± 0.11
333.15 K, x1 = 0.00761 | 977.87 ± 0.11
333.15 K, x1 = 0.01405 | 973.36 ± 0.12
333.15 K, x1 = 0.0248 | 965.88 ± 0.12
333.15 K, x1 = 0.03494 | 959.46 ± 0.12
333.15 K, x1 = 0.04241 | 954.72 ± 0.12
333.15 K, x1 = 0.05218 | 947.17 ± 0.12
333.15 K, x1 = 0.05887 | 942.74 ± 0.12
333.15 K, x1 = 0.06973 | 935.49 ± 0.12
333.15 K, x1 = 0.1125 | 908.96 ± 0.13
333.15 K, x1 = 0.1566 | 885.44 ± 0.13
333.15 K, x1 = 0.208 | 864.42 ± 0.14
333.15 K, x1 = 0.2408 | 852.37 ± 0.14
333.15 K, x1 = 0.3023 | 834.38 ± 0.15
333.15 K, x1 = 0.3451 | 823.51 ± 0.15
333.15 K, x1 = 0.4045 | 810.41 ± 0.15
333.15 K, x1 = 0.4225 | 807.23 ± 0.15
333.15 K, x1 = 0.4653 | 799.78 ± 0.16
333.15 K, x1 = 0.5344 | 788.31 ± 0.16
333.15 K, x1 = 0.6029 | 778.96 ± 0.16
333.15 K, x1 = 0.6909 | 768.71 ± 0.17
333.15 K, x1 = 0.726 | 765.01 ± 0.17
333.15 K, x1 = 0.7999 | 758.52 ± 0.17
333.15 K, x1 = 0.8711 | 752.17 ± 0.18
333.15 K, x1 = 0.9183 | 748.6 ± 0.18
333.15 K, x1 = 0.9574 | 745.7 ± 0.18
333.15 K, x1 = 0.9652 | 745.12 ± 0.18
333.15 K, x1 = 0.9795 | 744.15 ± 0.18
333.15 K, x1 = 0.9821 | 743.92 ± 0.18
333.15 K, x1 = 0.9944 | 743.11 ± 0.18
333.15 K, x1 = 0.996 | 743.02 ± 0.18
333.15 K, x1 = 1 | 742.7 ± 0.2
348.15 K, x1 = 0.00089 | 974.22 ± 0.11
348.15 K, x1 = 0.00146 | 973.75 ± 0.11
348.15 K, x1 = 0.00269 | 973.04 ± 0.11
348.15 K, x1 = 0.00403 | 972.25 ± 0.11
348.15 K, x1 = 0.00513 | 971.5 ± 0.11
348.15 K, x1 = 0.00761 | 969.81 ± 0.12
348.15 K, x1 = 0.01405 | 965 ± 0.12
348.15 K, x1 = 0.0248 | 957.02 ± 0.12
348.15 K, x1 = 0.03494 | 949.37 ± 0.12
348.15 K, x1 = 0.04241 | 944.24 ± 0.12
348.15 K, x1 = 0.05218 | 936.2 ± 0.12
348.15 K, x1 = 0.05887 | 931.84 ± 0.12
348.15 K, x1 = 0.06973 | 924.4 ± 0.12
348.15 K, x1 = 0.1125 | 896.84 ± 0.13
348.15 K, x1 = 0.1566 | 872.83 ± 0.13
348.15 K, x1 = 0.208 | 850.42 ± 0.14
348.15 K, x1 = 0.2408 | 838.25 ± 0.14
348.15 K, x1 = 0.3023 | 820.05 ± 0.15
348.15 K, x1 = 0.3451 | 808.66 ± 0.15
348.15 K, x1 = 0.4045 | 795.17 ± 0.16
348.15 K, x1 = 0.4225 | 792.36 ± 0.16
348.15 K, x1 = 0.4653 | 784.18 ± 0.16
348.15 K, x1 = 0.5344 | 772.8 ± 0.16
348.15 K, x1 = 0.6029 | 763.18 ± 0.17
348.15 K, x1 = 0.6909 | 752.22 ± 0.17
348.15 K, x1 = 0.726 | 748.55 ± 0.17
348.15 K, x1 = 0.7999 | 741.72 ± 0.18
348.15 K, x1 = 0.8711 | 734.96 ± 0.18
348.15 K, x1 = 0.9183 | 731.4 ± 0.18
348.15 K, x1 = 0.9574 | 728.29 ± 0.18
348.15 K, x1 = 0.9652 | 727.67 ± 0.18
348.15 K, x1 = 0.9795 | 726.63 ± 0.19
348.15 K, x1 = 0.9821 | 726.41 ± 0.19
348.15 K, x1 = 0.9944 | 725.51 ± 0.19
348.15 K, x1 = 0.996 | 725.4 ± 0.2
348.15 K, x1 = 1 | 725.05 ± 0.19
